Laboratory results from patent US20260201008A1, “SECRETIN-DERIVED GLP1R SELECTIVE AGONISTS” (GUBRA A/S, priority 2023, published 2026).
Read-outs that look alike come from different tables or passages of the source. Numbered stars: 1 amine (or outer) side, 2 acyl side, 3 side chain; on linkers, the order of the positions; unused ones are H or OH. Square brackets hold non-standard residues; d marks the D form. Side chains are listed from the residue outwards. Peptide text beside a SMILES is read from it. * marks the point of attachment. C20 diacid = O=C(O)CCCCCCCCCCCCCCCCCCC(=O)*; γGlu = O=C(O)[C@H](CCC(=O)[*:2])N[*:1]; AEEA = NCCOCCOCC(=O)O; Aib = CC(C)(N)C(=O)O

How the values were obtained:
[1] = Turbidity of crude library peptides (absorbance at 600 nm); type: physicochemical; settings: Physical stability of peptides
How it was run: (§1)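 Turbidity is the absorbance at 600 nm, taken before heating. Fibril signal is the mean ThT emission at 480 nm (450 nm excitation), read every 10 min over 72 h at 40° C with 700 rpm shaking between reads. Peptides at 267 μM, pH 4.0 acetate or pH 7.0 phosphate buffer (50 mM), 4 μM ThT final.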

[2] = Fibril formation of crude library peptides (Thioflavin T); type: physicochemical; design: key: average ThT fluorescence emission at 480 nm (ex 450 nm), raw units; settings: Physical stability of peptides
How it was run: as §1

GLP1R = GLP1R (Homo sapiens, UniProt P43220); assay: hGLP1R potency, cAMP accumulation in CHO-K1 cells stably overexpressing hGLP1R; type: cell-based; design: host or cells: CHO-K1; settings: for EC50: cAMP accumulation; for SCTR EC50/GLP1R EC50 ratio: cAMP accumulation in CHO-K1 cells
How it was run: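 2000 cells/well, DPBS + 0.05% casein + 0.5 mM IBMX; 30 min RT stimulation; HTRF cAMP detection after 1 h. Purified: 3-fold ×11, n=2; crude: 10-fold ×5, n=1. EC50 by variable-slope fit.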

SCTR = SCTR (Homo sapiens, UniProt P47872); assay: hSCTR potency, cAMP accumulation in CHO-K1 cells stably overexpressing hSCTR; type: cell-based; design: alternatively Euroscreen ES-712-AF; FAST-0161L; host or cells: CHO-K1; settings: cAMP accumulation
How it was run: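 Thawed CHO-K1 cells carrying stable hSCTR are plated into casein/IBMX buffer (0.05%, 0.5 mM), dosed immediately for 30 min at room temperature, then cAMP is detected by TR-FRET. Purified peptides run as 11 three-fold dilutions in duplicate, and curves are fitted with variable slope.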

Chain of SCTR (P47872 23-440): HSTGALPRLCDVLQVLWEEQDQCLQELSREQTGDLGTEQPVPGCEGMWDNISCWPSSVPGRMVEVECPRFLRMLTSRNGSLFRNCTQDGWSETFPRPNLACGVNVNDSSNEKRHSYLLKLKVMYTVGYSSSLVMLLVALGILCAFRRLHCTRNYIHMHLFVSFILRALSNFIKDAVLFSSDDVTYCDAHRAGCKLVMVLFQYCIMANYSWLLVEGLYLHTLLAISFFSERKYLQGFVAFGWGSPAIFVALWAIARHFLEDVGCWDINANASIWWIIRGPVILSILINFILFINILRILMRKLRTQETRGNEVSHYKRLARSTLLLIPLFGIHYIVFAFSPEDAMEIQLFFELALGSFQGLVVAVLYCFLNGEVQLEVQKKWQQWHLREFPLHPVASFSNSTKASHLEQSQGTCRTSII
Chain of GLP1R (P43220 24-463): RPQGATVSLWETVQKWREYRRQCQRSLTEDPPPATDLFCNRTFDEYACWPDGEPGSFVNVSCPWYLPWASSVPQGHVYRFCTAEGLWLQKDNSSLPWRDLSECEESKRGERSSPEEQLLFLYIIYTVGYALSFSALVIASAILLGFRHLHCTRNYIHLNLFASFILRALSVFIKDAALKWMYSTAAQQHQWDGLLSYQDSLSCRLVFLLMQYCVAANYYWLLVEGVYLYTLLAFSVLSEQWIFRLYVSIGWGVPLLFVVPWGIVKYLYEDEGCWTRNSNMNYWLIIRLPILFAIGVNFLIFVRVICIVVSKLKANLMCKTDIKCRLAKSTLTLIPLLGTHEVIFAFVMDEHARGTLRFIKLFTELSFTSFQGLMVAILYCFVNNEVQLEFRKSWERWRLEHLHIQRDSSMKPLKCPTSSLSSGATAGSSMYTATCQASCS

Row | Turbidity (pH 7) [1] | Fibril formation [2] | EC50 (GLP1R; CHO-K1 cells stably overexpressing hGLP1R, read-out: hGLP1R potency (pEC50) (converted)) [nM] | SCTR EC50/GLP1R EC50 ratio (GLP1R; selectivity ratio, hSCTR vs hGLP1R) | EC50 (SCTR; CHO-K1 cells stably overexpressing hSCTR, read-out: hSCTR potency (pEC50) (converted)) [nM] | Selectivity (GLP1R; SCTR EC50/GLP1R EC50 ratio) | EC50 (GLP1R; CHO-K1 cells overexpressing hGLP1R, read-out: pEC50 hGLPR1 (converted)) [nM] | EC50 (SCTR; CHO-K1 cells overexpressing hSCTR, read-out: pEC50 hSCTR (converted)) [nM] | EC50 (GLP1R; CHO-K1 cells overexpressing hGLP1R, read-out: hGLP1R pEC50 (converted)) [nM] | SCTR EC50/GLP1R EC50 ratio (GLP1R; selectivity for hGLP1R over hSCTR) | EC50 (SCTR; CHO-K1 cells overexpressing hSCTR, read-out: hSCTR pEC50 (converted)) [nM] | SMILES
1 | 0.60 | 260000 | 0.0398 | 820 | 39.8 | – | – | – | – | – | – | CC[C@H](C)[C@H](NC(=O)[C@H](Cc1ccccc1)NC(=O)[C@H](CCCNC(=N)N)NC(=O)[C@H](CCC(N)=O)NC(=O)[C@H](CC(C)C)NC(=O)[C@H](C)NC(=O)[C@H](C)NC(=O)CNC(=O)[C@H](CCC(=O)O)NC(=O)[C@H](CC(C)C)NC(=O)[C@H](CC(C)C)NC(=O)[C@H](Cc1ccccc1)NC(=O)[C@H](CO)NC(=O)[C@H](Cc1ccc(O)cc1)NC(=O)[C@H](CC(=O)O)NC(=O)[C@H](CO)NC(=O)[C@@H](NC(=O)[C@H](Cc1ccccc1)NC(=O)[C@@H](NC(=O)CNC(=O)[C@H](CCC(=O)O)NC(=O)C(C)(C)NC(=O)[C@@H](N)Cc1c[nH]cn1)[C@@H](C)O)[C@@H](C)O)C(=O)N[C@@H](CCC(N)=O)C(=O)N[C@@H](Cc1c[nH]c2ccccc12)C(=O)N[C@@H](CC(C)C)C(=O)N[C@H](C(N)=O)C(C)C [compound 202] (H-H[Aib]EGTFTSDYSFLLEGAALQRFIQWLV-NH2)
2 | 0.08 | 13638 | – | – | – | 17543 | 0.0158 | 251 | – | – | – | CC(C)C[C@H](NC(=O)[C@H](Cc1ccccc1)NC(=O)[C@H](CCCNC(=N)N)NC(=O)[C@H](CCC(N)=O)NC(=O)[C@H](CCC(N)=O)NC(=O)[C@H](C)NC(=O)[C@H](C)NC(=O)[C@H](CCC(=O)O)NC(=O)[C@H](CCC(=O)O)NC(=O)[C@H](CCCCNC(=O)COCCOCCNC(=O)COCCOCCNC(=O)CC[C@H](NC(=O)CCCCCCCCCCCCCCCCCCC(=O)O)C(=O)O)NC(=O)[C@H](CC(C)C)NC(=O)[C@H](Cc1ccc(O)cc1)NC(=O)[C@H](CO)NC(=O)[C@@H](NC(=O)[C@H](CC(=O)O)NC(=O)[C@H](CO)NC(=O)[C@@H](NC(=O)[C@H](Cc1ccccc1)NC(=O)[C@@H](NC(=O)CNC(=O)[C@H](CCC(=O)O)NC(=O)C(C)(C)NC(=O)[C@@H](N)Cc1c[nH]cn1)[C@@H](C)O)[C@@H](C)O)C(C)C)C(=O)N[C@@H](CCC(=O)O)C(=O)N[C@@H](Cc1c[nH]cn1)C(=O)N[C@@H](CC(C)C)C(=O)N[C@H](C(N)=O)C(C)C [compound 47] (H-H[Aib]EGTFTSDVSYLK([AEEA-AEEA-γGlu-C20 diacid])EEAAQQRFLEHLV-NH2)
3 | 0.42 | 202498 | – | – | – | – | – | – | 0.0501 | 1422 | 79.4 | CC[C@H](C)[C@H](NC(=O)[C@H](Cc1ccccc1)NC(=O)[C@H](CCCNC(=N)N)NC(=O)[C@H](CCC(N)=O)NC(=O)[C@H](CC(C)C)NC(=O)[C@H](C)NC(=O)[C@H](C)NC(=O)CNC(=O)[C@H](CCC(=O)O)NC(=O)[C@H](CC(C)C)NC(=O)[C@H](CC(C)C)NC(=O)[C@@H](NC(=O)[C@H](CO)NC(=O)[C@@H](NC(=O)[C@H](CC(=O)O)NC(=O)[C@H](CO)NC(=O)[C@@H](NC(=O)[C@H](Cc1ccccc1)NC(=O)[C@@H](NC(=O)CNC(=O)[C@H](CCC(=O)O)NC(=O)C(C)(C)NC(=O)[C@@H](N)Cc1c[nH]cn1)[C@@H](C)O)[C@@H](C)O)[C@@H](C)CC)C(C)C)C(=O)N[C@@H](CCC(N)=O)C(=O)N[C@@H](Cc1c[nH]c2ccccc12)C(=O)N[C@@H](CC(C)C)C(=O)N[C@H](C(N)=O)C(C)C [compound 116] (H-H[Aib]EGTFTSDISVLLEGAALQRFIQWLV-NH2)
